Assay results: ChEMBL document CHEMBL2311374, “Anti-angiogenesis and immunomodulatory activities of an anti-tumor sesquiterpene bigelovin isolated from Inula helianthus-aquatica” (Eur J Med Chem, 2013)
Active and inactive are the calls of the source. No cut-off for these calls is given here.

Key:
[1] = species on record: Danio rerio; assay: Anti-angiogenic activity in transgenic zebrafish Tg(fli1a:EGFP)y1 1 to 4 cell stage embryo assessed as down-regulation of Tie-1 angiogenic gene expression measured after 24 hrs by real-time PCR analysis; type: functional
[2] = test system: HMEC-1; assay: Effect on cell adhesion gene expression in TNFalpha stimulated HMEC1 cells assessed as reduction in E-selectin protern expression at 1000 or 3000 nM measured after 24 hrs by Western blotting; type: functional, cell-based; conditions: Homo sapiens
[3] = test system: HMEC-1; assay: Antimigratory activity against HMEC1 cells assessed as decrease in cell motility measured after 24 hrs by scratch wound assay; type: functional, cell-based; conditions: Homo sapiens
[4] = test system: PBMC; assay: Immunomodulatory effect in phytohemagglutininin-activated human PBMC assessed as inhibition of INFgamma production measured after 24 hrs by ELISA; type: functional, cell-based
[5] = Cytotoxicity against human HMEC1 cells at 1000 or 3000 nM measured after 12 hrs by MTT assay; type: cell-based; conditions: hmec-1, 12 h
[6] = test system: PBMC; assay: Immunomodulatory effect in phytohemagglutininin-activated human PBMC assessed as inhibition of IL2 production measured after 24 hrs by ELISA; type: functional, cell-based
[7] = test system: PBMC; assay: Immunomodulatory effect in phytohemagglutininin-activated human PBMC assessed as stimulation of cell proliferation at 62.5 to 250 nM measured after 72 hrs; type: functional, cell-based
[8] = species on record: Danio rerio; assay: Anti-angiogenic activity in transgenic zebrafish Tg(fli1a:EGFP)y1 1 to 4 cell stage embryo assessed as inhibition of subintestinal vessels formation measured after 48 hrs by fluorescent microscopy; type: functional, tissue-based
[9] = Cytotoxicity against human HMEC1 cells; type: cell-based; conditions: hmec-1
[10] = test system: HMEC-1; assay: Effect on cell adhesion gene expression in TNFalpha stimulated HMEC1 cells assessed as reduction in E-selectin mRNA level at 1000 or 3000 nM measured after 12 hrs by real-time PCR analysis; type: functional, Homo sapiens; parameters: scale not given: the % may be the effect or the level left
[11] = test system: HMEC-1; assay: Inhibition of HMEC1 cells growth measured after 48 hrs by MTT assay; type: functional, cell-based; conditions: Homo sapiens, HMEC-1, 48 h
[12] = test system: HMEC-1; assay: Inhibition of cell proliferation of HMEC1 cells assessed as [methyl-3H] thymidine incorporation measured after 48 hrs; type: functional, cell-based; conditions: Homo sapiens
[13] = test system: HMEC-1; assay: Effect on cell adhesion gene expression in TNFalpha stimulated HMEC1 cells assessed as reduction in ICAM1 protern expression at 1000 or 3000 nM measured after 24 hrs by Western blotting; type: functional, cell-based; conditions: Homo sapiens
[14] = test system: PBMC; assay: Immunomodulatory effect in phytohemagglutininin-activated human PBMC assessed as inhibition of IL12 production measured after 24 hrs by ELISA; type: functional, cell-based
[15] = test system: PBMC; assay: Cytotoxicity against human PBMC at 62.5 to 250 nM for 72 hrs by XTT assay; type: cell-based; conditions: 0.25 µM
[16] = test system: HMEC-1; assay: Effect on cell adhesion gene expression in TNFalpha stimulated HMEC1 cells assessed as reduction in VCAM1 protern expression at 1000 or 3000 nM measured after 24 hrs by Western blotting; type: functional, cell-based; conditions: Homo sapiens
[17] = test system: HMEC-1; assay: Inhibition of HMEC1 cells growth measured after 48 hrs; type: functional, cell-based; conditions: Homo sapiens, HMEC-1, 48 h
[18] = species on record: Danio rerio; assay: Anti-angiogenic activity in transgenic zebrafish Tg(fli1a:EGFP)y1 1 to 4 cell stage embryo assessed as complete inhibition of subintestinal vessels formation measured at 100 uM after 48 hrs by fluorescent microscopy; type: functional, tissue-based
[19] = test system: PBMC; assay: Immunomodulatory effect in phytohemagglutininin-activated human PBMC assessed as inhibition of TNFalpha production measured after 24 hrs by ELISA; type: functional, cell-based
[20] = test system: HMEC-1; assay: Effect on cell adhesion gene expression in TNFalpha stimulated HMEC1 cells assessed as reduction in VCAM1 mRNA level at 1000 or 3000 nM measured after 12 hrs by real-time PCR analysis; type: functional, Homo sapiens; parameters: scale not given: the % may be the effect or the level left
[21] = species on record: Danio rerio; assay: Anti-angiogenic activity in transgenic zebrafish Tg(fli1a:EGFP)y1 1 to 4 cell stage embryo assessed as down-regulation of Tie-2 angiogenic gene expression measured after 24 hrs by real-time PCR analysis; type: functional
[22] = test system: HMEC-1; assay: Effect on cell adhesion gene expression in TNFalpha stimulated HMEC1 cells assessed as reduction in ICAM1 mRNA level at 1000 or 3000 nM measured after 12 hrs by real-time PCR analysis; type: functional, Homo sapiens; parameters: scale not given: the % may be the effect or the level left
[23] = species on record: Danio rerio; assay: Anti-angiogenic activity in transgenic zebrafish Tg(fli1a:EGFP)y1 1 to 4 cell stage embryo assessed as down-regulation of Ang-1 angiogenic gene expression measured after 24 hrs by real-time PCR analysis; type: functional
[24] = species on record: Danio rerio; assay: Anti-angiogenic activity in transgenic zebrafish Tg(fli1a:EGFP)y1 1 to 4 cell stage embryo assessed as inhibition of subintestinal vessel length measured at 25 to 100 uM after 48 hrs by fluorescent microscopy; type: functional, tissue-based
[25] = species on record: Danio rerio; assay: Anti-angiogenic activity in transgenic zebrafish Tg(fli1a:EGFP)y1 1 to 4 cell stage embryo assessed as down-regulation of Ang-2 angiogenic gene expression measured after 24 hrs by real-time PCR analysis; type: functional

## C=C1C(=O)O[C@H]2C[C@@H](C)[C@@H]3C=CC(=O)[C@@]3(C)[C@@H](OC(C)=O)[C@H]12 [BIGELOVIN]
[1]
  inhibition: inactive
[2]
  Activity: Active
[3]
  inhibition: Dose-dependent effect
[4]
  inhibition: Dose-dependent effect
[5]
  Activity: Non-toxic
[6]
  inhibition: Dose-dependent effect
[7]
  Activity: Active
[8]
  inhibition: Dose-dependent effect
[9]
  Activity: Non-toxic
  inhibition (INH): Dose-dependent effect
[10]
  Activity: 67%
[11]
  IC50: 2680 nM
[12]
  inhibition: Dose-dependent effect
[13]
  Activity: Active
[14]
  inhibition: Dose-dependent effect
[15]
  Activity: Non-toxic
[16]
  Activity: Active
[17]
  IC50: 946 nM
[18]
  inhibition: Active
[19]
  inhibition: Dose-dependent effect
[20]
  Activity: 74%
[21]
  inhibition: Active
[22]
  Activity: 76%
[22]; Homo sapiens
  inhibition: Dose-dependent effect
[23]
  inhibition: Active
[24]
  inhibition: Active
[25]
  inhibition: Active
